The values below come from US20150004134A1, “TREATMENT OF CANCER WITH HETEROCYCLIC INHIBITORS OF GLUTAMINASE” (Calithera Biosciences, Inc., priority 2012, published 2015).

Assay [1] concerns P493-6 (myc "on") cells. Briefly: Cell Proliferation Assay. It counts as cell-based. The settings on record: P493-6, 72 h. Summed up:
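Read-out: either Cell Titer Glo or Guava Viacount flow analysis after 72 h compound treatment of myc-on P493-6 cells (10,000/well, RPMI with 10% FBS) at 37 °C. DMSO held at 0.5% final.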

Assay [2] has as its target T1, recombinant form of Glutaminase 1 (GAC) (Homo sapiens, UniProt O94925).
T1 sequence (O94925 137-598 isoform O94925-3 limits assumed): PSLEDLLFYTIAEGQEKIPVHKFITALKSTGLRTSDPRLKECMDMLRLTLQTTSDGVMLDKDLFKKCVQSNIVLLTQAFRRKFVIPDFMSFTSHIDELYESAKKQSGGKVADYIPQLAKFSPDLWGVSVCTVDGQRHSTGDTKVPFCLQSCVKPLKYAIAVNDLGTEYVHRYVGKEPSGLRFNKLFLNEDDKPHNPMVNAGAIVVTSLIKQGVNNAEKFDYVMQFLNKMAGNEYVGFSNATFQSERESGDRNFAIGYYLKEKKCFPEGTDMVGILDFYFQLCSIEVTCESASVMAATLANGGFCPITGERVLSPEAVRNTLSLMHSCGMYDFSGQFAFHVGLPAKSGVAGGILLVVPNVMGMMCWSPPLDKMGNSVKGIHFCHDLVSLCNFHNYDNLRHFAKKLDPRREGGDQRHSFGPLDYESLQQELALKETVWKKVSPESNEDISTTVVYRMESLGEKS
As to the kind of experiment: Recombinant Enzyme Assay (no preincubation).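 Note: GDH-coupled GAC activity read as absorbance at 340 nm in kinetic mode over 15 min at 20 °C, slopes compared with a DMSO-only control, lower slope means inhibition.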 It counts as biochemical. The settings on record: read-out: GAC Delta N2 IC50 no preinc.
Description: Compounds were assessed for their ability to inhibit the enzymatic activity of a recombinant form of Glutaminase 1 (GAC) using a biochemical assay that couples the production of glutamate (liberated by GAC) to glutamate dehydrogenase (GDH) and measuring the change in absorbance for the reduction of NAD^+ to NADH. […] Enzymatic reaction was started with the addition of 50 μL of enzyme solution (50 mM Tris-HCl pH 8.0, 0.2 mM EDTA, 150 mM K2HPO4, 0.1 mg/ml BSA, 1 mM DTT, 10 ppm antifoam, 4 units/ml GDH, 4 mM adenosine diphosphate, and 4 nM GAC) and read in a Molecular Devices M5 plate reader at 20° C. The plate reader was configured to read absorbance (λ=340 nm) in kinetic mode for 15 minutes. Data was recorded as milli-absorbance units per minute and slopes were compared to a control compound and a DMSO-only control on the same plate. Compounds with slopes less than the DMSO control were considered inhibitors and plate variability was assessed using the control compound.

Assay [3] addresses T1, recombinant form of Glutaminase 1 (GAC). Briefly: Recombinant Enzyme Assay - Time Dependence (60 min preincubation). It counts as biochemical. Summed up: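 Enzyme and compound preincubated 60 min at 20° C; reaction started with substrate buffer (50 mM Tris-HCl pH 8.0, 150 mM K2HPO4, 1 mM DTT, 20 mM L-glutamine, 2 mM NAD^+). NADH formation followed at 340 nm in kinetic mode for 15 min at 20° C; slopes (mAU/min) compared with DMSO and control-compound wells.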

Where [4] appears, read: read-out: Cell prolif P493 72 h IC50, P493 cells, 72 h.
The mark [5] stands for this setting: read-out: GAC Delta N2 IC50 60 min preinc.
Setting [6] is: read-out: Cell prolif P493 72 h IC50, P493-6 cells, 72 h.

Where two headings read alike, the source gives them in different places. Some results are limits rather than exact numbers.

On to `Nc1cccc(CC(=O)Nc2nnc(CCCCc3nnc(NC(=O)Cc4cccc(N)c4)s3)s2)c1` [Compound 329], for which the IC50 stood at 450 nM in assay [1] (setting [4]) and 170 nM in assay [2]. Regarding `O=C(Nc1nnc(CCSCc2nnc(NC(=O)[C@@H](O)c3ccccc3)s2)s1)[C@@H](O)c1ccccc1` [Compound 242], the IC50 in assay [1] (setting [4]) turned out to be 220 nM; in assay [2], 360 nM.

`O=C(Cc1ccccc1)Nc1ccc(CCCCc2nnc(NC(=O)Cc3cccc(OCCN4CCOCC4)c3)s2)nn1` [Compound 381]: the IC50 in assay [1] (setting [4]) was 18 nM; in assay [2], 160 nM. The corresponding values for `O=C(Cc1ccccc1)Nc1ccc(CCCCc2nnc(NC(=O)OCc3ccccc3)s2)nn1` [Compound 386] are 150 nM and 85 nM.

Regarding `COc1cccc(CC(=O)Nc2ccc(CCCCc3nnc(NC(=O)Cc4ccccc4)s3)nn2)c1` [Compound 366], the IC50 worked out at 24 nM in assay [1] (setting [4]) and 74 nM in assay [2]. For `O=C(Nc1nnc(CCSCCc2nnc(NC(=O)[C@H]3C[C@@H]3c3ccccc3)s2)s1)C1C[C@@H]1c1ccccc1` (stereo partly shown) [Compound 91], in assay [2], the IC50 was greater than 20000 nM. Same read-out and setting: under `CC[C@@](O)(C(=O)Nc1nnc(CCCCc2nnc(NC(=O)[C@](O)(CC)c3ccccc3)s2)s1)c1ccccc1` [Compound 144] stands greater than 20000 nM; under `CC(=O)O[C@@H](C(=O)Nc1nnc(CCSCc2nnc(NC(=O)[C@H](OC(C)=O)c3ccccc3)s2)s1)c1ccccc1` [Compound 238], 13000 nM. For the compound `CCNC(=O)OC(C)c1cccc(CC(=O)Nc2ccc(CCCCc3nnc(NC(=O)Cc4cccc(OC(F)(F)F)c4)s3)nn2)c1` (stereo not shown) [Compound 596], the IC50 in assay [3] (setting [5]) came to 15 nM; in assay [1] (setting [6]), 330 nM.

Take `Nc1ccc(CC(=O)Nc2nnc(CCCCc3ccc(NC(=O)Cc4ccccc4)nn3)s2)cc1` [Compound 410]: the IC50 was 9 nM in assay [3] (setting [5]) and 57 nM in assay [1] (setting [6]). The corresponding values for `CC(C)(O)COc1cccc(CC(=O)Nc2nnc(CCCCc3ccc(NC(=O)Cc4ccccc4)nn3)s2)c1` [Compound 482] are 7 nM and 38 nM.

On to `CCCN(C)C(=O)Cc1cccc(CC(=O)Nc2nnc(CCCCc3ccc(NC(=O)Cc4ccccc4)nn3)s2)c1` [Compound 484], for which the IC50 in assay [3] (setting [5]) is 3 nM; in assay [1] (setting [6]), 11 nM. The matching figures for `CC(N)c1cccc(CC(=O)Nc2nnc(CCCCc3ccc(NC(=O)Cc4ccccc4)nn3)s2)c1` (stereo not shown) [Compound 559]: 12 nM and 66 nM. The matching figures for `CCC(O)C(=O)NCc1cccc(CC(=O)Nc2nnc(CCCCc3ccc(NC(=O)Cc4ccccc4)nn3)s2)c1` (stereo not shown) [Compound 575]: 7 nM and 40 nM. The corresponding values for `CC(NC(=O)OC(C)(C)C)c1cccc(CC(=O)Nc2ccc(CCCCc3nnc(NC(=O)Cc4ccccc4)s3)nn2)c1` (stereo not shown) [Compound 543] are 4 nM and 5 nM. With `Cc1ccccc1CC(=O)Nc1nnc(CCCCc2ccc(NC(=O)Cc3ccccc3)nn2)s1` [Compound 523], the IC50 in assay [3] (setting [5]) was determined as 21 nM; in assay [1] (setting [6]) it was 55 nM. The matching figures for `CC1(C)OCC(C)(C(=O)NCc2cccc(CC(=O)Nc3nnc(CCCCc4ccc(NC(=O)Cc5ccccc5)nn4)s3)c2)CO1` [Compound 580]: 5 nM and 13 nM.

Consider `CCOC(=O)NC(C)c1cccc(CC(=O)Nc2ccc(CCCCc3nnc(NC(=O)C(C)c4ccccc4)s3)nn2)c1` (stereo not shown) [Compound 602], for which the IC50 in assay [3] (setting [5]) stood at 6 nM; in assay [1] (setting [6]) it was 36 nM. The corresponding values for `O=C(Cc1cccc2c1CNC2)Nc1ccc(CCCCc2nnc(NC(=O)Cc3cccc(OC(F)(F)F)c3)s2)nn1` [Compound 649] are 4 nM and 34 nM. On to `CC(C)CNC(=O)Cc1cccc(CC(=O)Nc2ccc(CCCCc3nnc(NC(=O)Cc4ccccc4)s3)nn2)c1` [Compound 517], for which the IC50 amounted to 3 nM in assay [3] and 46 nM in assay [1] (setting [6]). Consider `CCOC(=O)c1ccc(CC(=O)Nc2nnc(CCCCc3ccc(NC(=O)Cc4ccccc4)nn3)s2)cc1OCC` [Compound 588], for which the IC50 was 8 nM in assay [3] (setting [5]) and 270 nM in assay [1] (setting [6]). Regarding `CCN(CC)C(=O)COc1cccc(CC(=O)Nc2ccc(CCCCc3nnc(NC(=O)Cc4ccccc4)s3)nn2)c1` [Compound 646], the IC50 in assay [3] (setting [5]) was found to be 7 nM; in assay [1] (setting [6]) it was 37 nM. On to `CCNC(=O)OC(C)c1cccc(CC(=O)Nc2ccc(CCCCc3nnc(NC(=O)C(C)c4ccccc4)s3)nn2)c1` (stereo not shown) [Compound 594], for which the IC50 in assay [3] (setting [5]) amounted to 7 nM; in assay [1] (setting [6]), 50 nM. The corresponding values for `O=C(Cc1ccccc1)Nc1ccc(CCCCc2nnc(NC(=O)Cc3cccc(OCC(F)(F)F)c3)s2)nn1` [Compound 665] are 5 nM and 100 nM. Take `COC(=O)NC(C)c1cccc(CC(=O)Nc2ccc(CCCCc3nnc(NC(=O)C(C)c4ccccc4)s3)nn2)c1` (stereo not shown) [Compound 601]: the figures for the IC50 in assay [3] (setting [5]) and in assay [1] (setting [6]) were 6 nM and 36 nM, respectively. The corresponding values for `CCOC(=O)NC(C)c1cccc(CC(=O)Nc2nnc(CCCCc3ccc(NC(=O)Cc4ccccc4)nn3)s2)c1` (stereo not shown) [Compound 562] are 3 nM and 2 nM. On to `CCCCS(=O)(=O)Cc1cccc(CC(=O)Nc2ccc(CCCCc3nnc(NC(=O)Cc4ccccc4)s3)nn2)c1` [Compound 645], for which the IC50 was determined as 2 nM in assay [3] (setting [5]) and 15 nM in assay [1] (setting [6]). The matching figures for `CCOC(=O)NCc1cccc(CC(=O)Nc2ccc(CCCCc3nnc(NC(=O)C(OC)c4ccccc4)s3)nn2)c1` (stereo not shown) [Compound 609]: 9 nM and 14 nM.

On to `O=C(Cc1ccccc1)Nc1ccc(CCCCc2nnc(NC(=O)Cc3cccc(OCCCO)c3)s2)nn1` [Compound 519], for which the IC50 stood at 9 nM in assay [3] (setting [5]) and 59 nM in assay [1] (setting [6]). As for `CC(=O)NC(C)c1cccc(CC(=O)Nc2ccc(CCCCc3nnc(NC(=O)Cc4ccccc4)s3)nn2)c1` (stereo not shown) [Compound 590], the IC50 in assay [3] (setting [5]) came to 7 nM; in assay [1] (setting [6]), 87 nM. The matching figures for `CC(C)(C)OC(=O)NCCc1cccc(CC(=O)Nc2nnc(CCCCc3ccc(NC(=O)Cc4ccccc4)nn3)s2)c1` [Compound 429]: 4 nM and 7 nM. The matching figures for `O=C(Cc1ccccc1)Nc1ccc(CCCCc2nnc(NC(=O)Cc3ccc(F)c(OCCO)c3)s2)nn1` [Compound 540]: 7 nM and 50 nM.

Take `CC(CO)(CO)C(=O)NCc1cccc(CC(=O)Nc2nnc(CCCCc3ccc(NC(=O)Cc4ccccc4)nn3)s2)c1` [Compound 581]: the IC50 in assay [3] (setting [5]) is 11 nM; in assay [1] (setting [6]) it was 240 nM. The corresponding values for `CCNC(=O)Nc1nnc(CCCCc2ccc(NC(=O)Cc3ccccc3)nn2)s1` [Compound 418] are 140 nM and 320 nM. The matching figures for `CN(Cc1cccc(CC(=O)Nc2nnc(CCCCc3ccc(NC(=O)Cc4ccccc4)nn3)s2)c1)C(=O)Cc1ccccc1` [Compound 444]: 3 nM and 8 nM. With `CC(C)CC(=O)NC(C)c1cccc(CC(=O)Nc2ccc(CCCCc3nnc(NC(=O)Cc4ccccc4)s3)nn2)c1` (stereo not shown) [Compound 625], the IC50 in assay [3] is 4 nM; in assay [1] (setting [6]) it was 6 nM. As for `O=C(Cc1ccccc1)Nc1ccc(CCCCc2nnc(NC(=O)Cc3c(F)cccc3F)s2)nn1` [Compound 443], the results for the IC50 in assay [3] (setting [5]) and in assay [1] (setting [6]) were 11 nM and 100 nM, respectively. The matching figures for `CC(C)(C)OC(=O)NCc1cccc(CC(=O)Nc2nnc(CCCCc3ccc(N)nn3)s2)c1` [Compound 412]: 28 nM and 110 nM. Take `CCCCNC(=O)Cc1cccc(CC(=O)Nc2ccc(CCCCc3nnc(NC(=O)Cc4ccccc4)s3)nn2)c1` [Compound 516]: the IC50 came to 3 nM in assay [3] and 28 nM in assay [1] (setting [6]).

On to `O=C(O)Cc1cccc(CC(=O)Nc2nnc(CCCCc3ccc(NC(=O)Cc4ccccc4)nn3)s2)c1` [Compound 465], for which the results for the IC50 in assay [3] (setting [5]) and in assay [1] (setting [6]) were 6 nM and 920 nM, respectively.

For the compound `CC(C)(C)OC(=O)N1Cc2cccc(CC(=O)Nc3nnc(CCCCc4ccc(NC(=O)Cc5ccccc5)nn4)s3)c2C1` [Compound 608], the IC50 worked out at 7 nM in assay [3] (setting [5]) and 37 nM in assay [1] (setting [6]).

With `O=C(Cc1cccs1)Nc1ccc(CCCCc2nnc(NC(=O)Cc3ccccc3)s2)nn1` [Compound 499], the IC50 is 10 nM in assay [3] (setting [5]) and 190 nM in assay [1] (setting [6]).

With `CC(C(=O)NCc1cccc(CC(=O)Nc2nnc(CCCCc3ccc(NC(=O)Cc4ccccc4)nn3)s2)c1)c1ccc(O)cc1` (stereo not shown) [Compound 576], the IC50 in assay [3] (setting [5]) worked out at 3 nM; in assay [1] (setting [6]), 13 nM. The matching figures for `CCOC(=O)Cc1cccc(CC(=O)Nc2ccc(CCCCc3nnc(NC(=O)Cc4ccccc4)s3)nn2)c1` [Compound 501]: 4 nM and 69 nM.
